In patent US20250041323A1, “BDNF PRODUCTION PROMOTER” (YAMASA CORPORATION, priority 2022, published 2025):

What was measured:
BDNF mRNA in PC-12 cells [1] = assay: BDNF gene expression promoting effect-3: BDNF mRNA by real-time PCR in PC-12 cells (uridine); format: cell-based, rat; conditions: 200 μM, 1 hour, n=3
Description: PC-12 cells were suspended in DMEM containing 5% FBS (fetal bovine serum), 10% horse serum, and antibiotics (100 units/ml of penicillin, 100 μg/ml of streptomycin), seeded on a collagen-coated 24-well plate at a density of 2.4×10^5 cells/well, and cultured in an incubator at 37° C. and 5% CO2 for 18 hours. Uridine, a precursor of uridylic acid, was added to a final concentration of 200 μM, and cultured for 1 hour. Subsequently, mRNA was extracted, and the amount of mRNA of BDNF was evaluated by reverse transcription and real-time PCR analysis in the same procedure as that of Example 1.

[2] = test system: BDNF protein in PC-12 cells; assay: BDNF protein by Rat BDNF ELISA in PC-12 cell lysate; format: cell-based; conditions: 200 µM, 24 hours, t-test vs control, n=3
Description: PC-12 cells were suspended in DMEM containing 20% FBS and antibiotics, seeded on a collagen-coated 24-well plate at a density of 2.4×10^5 cells/well, and cultured in an incubator at 37° C. and 5% CO2 for 18 hours. Uridine was added to a final concentration of 200 µM, and cultured for 24 hours. The medium was removed by suction, and 100 μl of RIPA buffer (50 mM Tris-HCl (pH 7.6), 150 mM NaCl, 1% NP-40, 0.5% sodium deoxycholate, 1% SDS) containing 1% protease inhibitor cocktail (nacalai tesque) was added, and the cells were disrupted by pipetting and ultrasonication. The amount of BDNF in the cell lysate was measured using a Rat BDNF ELISA Kit (RayBiotech). The amount of protein in the cell lysate was measured using a Micro BCA™ Protein Assay Kit (Thermo Fisher Scientific), and the amount of BDNF per total protein mass was calculated. […] The threshold for statistical significance was set at 5%.

[3] = test system: BDNF mRNA in C2C12 cell-derived myotube cells; assay: BDNF gene expression promoting effect-1: BDNF mRNA by real-time PCR in C2C12 cell-derived myotube cells; format: cell-based, mouse; conditions: 1 mM, 4 hours, corrected to β-actin mRNA, vs control without test substance, Dunnett's test, n=3
Description: Mouse myoblast cell line C2C12 cells (RIKEN BRC, RCB0987) were suspended in a growth medium (DMEM containing 10% FBS and antibiotics), seeded in a 24-well plate, and cultured in an incubator at 37° C. and 5% CO2 until the cell density reached 70-90%. The growth medium was removed and replaced with a differentiation induction medium (DMEM containing 2% horse serum and antibiotics). After culturing it for 6 days while changing the medium once every 2 days, cytidylic acid (CMP) or uridylic acid (UMP) was added to a final concentration of 1 mM and cultured for 4 hours. The medium was removed, and the total RNA was extracted from the cells using NucleoSpin® RNA (TAKARA BIO INC).
Using the total RNA as a template, a reverse transcription reaction solution was prepared using ReverTra Ace® qPCR RT Kit (TOYOBO). The reverse transcription reaction solution, GoTaq qPCR Master Mix (Promega), and a real-time PCR device Thermal Cycler Dice® Real Time System (TAKARA BIO INC) were used to measure amounts of mRNAs of BDNF and β-actin as an internal standard. Analysis was performed by relative quantification, and the amount of the mRNA was corrected using the amount of mRNA of β-actin as an endogenous control.
The threshold of statistical significance was set at 5%. In addition, unless otherwise specified, including the following Examples, each sample was examined at n=3.

BDNF mRNA in PC-12 cells [4] = assay: BDNF gene expression promoting effect-2: BDNF mRNA by real-time PCR in PC-12 cells (uridylic acid); format: cell-based, rat; conditions: 500 µM, 4 hours, n=3
Description: Rat adrenal medulla brown tumor-derived cells (PC-12 cells, JCRB0733), used as nervous system model cells, were suspended in DMEM containing 20% FBS and antibiotics, seeded on a collagen-coated 24-well plate at a density of 2.4×10^5 cells/well, and cultured in an incubator at 37° C. and 5% CO2 for 18 hours. Uridylic acid (UMP) was added to a final concentration of 500 µM, and cultured for 4 hours.
Subsequently, mRNA was extracted and an amount of mRNA of BDNF was evaluated by reverse transcription and real-time PCR analysis in the same procedure as that of Example 1.

Compound	amount of mRNA of BDNF (BDNF mRNA in PC-12 cells [1])	amount of BDNF per total protein mass [2]	amount of mRNA of BDNF [3]	amount of mRNA of BDNF (BDNF mRNA in PC-12 cells [4])
O=c1ccn([C@@H]2O[C@H](CO)[C@@H](O)[C@H]2O)c(=O)[nH]1 [uridine]	significantly increased	significantly increased	–	–
Nc1ccn([C@@H]2O[C@H](COP(=O)(O)O)[C@@H](O)[C@H]2O)c(=O)n1 [cytidylic acid]	–	–	significantly increased	–
O=c1ccn([C@@H]2O[C@H](COP(=O)(O)O)[C@@H](O)[C@H]2O)c(=O)[nH]1 [uridylic acid]	–	–	significantly increased	significantly increased
